Assay results reported in patent US20030017976A1, “Therapeutic properties of liposome-encapsulated immunomodulators” (priority 1998, published 2003).

What was measured:
tumor cells = assay: Macrophage-mediated tumor cytotoxicity, target cells not named; assay type: cell-based; conditions: PEM with 50 umol/well MLV (0.1 mg JBT3002/300 μM phospholipid) in the presence of 2 mM NMA
Protocol: Cytotoxicity was assayed by measuring release of radioactivity from target cell DNA as described previously (Dong Z, et al. J Exp Med (1993) 177:1071-7). Briefly, tumor target cells in their exponential growth phase were incubated in medium containing 0.25 μCi/ml of [^3H]TdR (sp. Act. 2 Ci/mmol) (ICN Biomedicals, Inc., Irvine, Calif.) for 24 h. The cells were washed three times with HBSS to remove unbound radioactivity and then harvested by trypsinization (0.25% trypsin in 0.02% EDTA), washed, and resuspended in medium. Cells were plated (at 1×10^4/well) into wells containing control or test macrophages to achieve an E/T cell ratio of 10:1. At this density, macrophages incubated in medium (control) were not cytotoxic to neoplastic cells (Weinstein SL, et al. Proc Natl Acad Sci USA (1991) 88:4148-52; Dong Z, et al. JLeukoc Biol (1993) 53:53-60). […] The lysate was harvested with harvester 96 (Tomtec, Orange, Conn.) and counted for residual radioactivity in a liquid scintillation counter. Macrophage-mediated cytotoxicity was calculated as follows: […]
Efficient activation of macrophages by LPS requires priming by IFN-γ (Saiki I, et al. J Immunol (1985) 135:684-8). […] Tumor cytotoxicity was measured 72 h after the addition of radiolabeled tumor cells to the activated macrophages. […]

[1] = test system: peritoneal exudate macrophages (PEM); assay: Nitrite (NO) production by mouse peritoneal exudate macrophages; assay type: cell-based; conditions: PEM with 50 umol/well MLV (0.1 mg JBT3002/300 μM phospholipid) in the presence of 2 mM NMA
Protocol: Peritoneal exudate macrophages (PEM) were collected by peritoneal lavage from mice given an intraperitoneal injection of 2.0 ml of thioglycollate broth (Baltimore Biological Laboratory, Cockeysville, Md.) 4 days before harvest (Dong Z, O'Brian C A, et al. J Leukoc Biol (1993) 53:53-60; Xie K, Huang S, et al. Cancer Res (1995) 55:3123-31). The PEM were washed in Ca^+2- an Mg^2+-free HBSS and resuspended in serum-free medium: 1×10^5 cells were plated into each 38-mm^2 well of 96-2311 culture plates (Falcon Plastics, Oxnard, Calif.). After a 90-min incubation, the nonadherent cells were removed by washing with medium. More than 98% of the adherent cell populations were macrophages according to morphology and phagocytic criteria (Saiki I, et al. J Immunol (1985) 135:684-8). […] After treatment, the cultures were washed and macrophage-mediated cytotoxicity against different tumor targets was determined. […]
Nitrite accumulation in the culture supernatant was measured in a colorimetric assay as described previously (Ding A E, et al. J Immunol (1988) 141:2407-12). […] The mixtures were incubated 10 min with shaking, and A540 was measured with the use of a microplate reader (Model 3550; Bio-Rad Corp., San Francisco, Calif.). The concentration of nitrite was determined by comparing it with a standard solution of sodium nitrite in medium.

[2] = test system: PEM (TNF-α, IL-1α, IL-6, NO); assay: Cytokine and nitrite production by PEM (ELISA, Griess); assay type: cell-based, mouse; conditions: PEM treated with LPS or MLV-JBT3002, genistein 100 μM, PD-98059 10 μM, calphostin-C 250 nM
Protocol: Peritoneal exudate macrophages (PEM) were collected by peritoneal lavage from mice given an intraperitoneal injection of 1.5 ml of thioglycollate broth (Baltimore Biological Laboratory, Cockeysville, Md.) 4 days before harvest.(Saiki I, et al. J Immunol (1985) 135:684 688; Dong Z, et a.l J Leukoc Biol (1993) 53:53-60; Dong Z, J et al. J Exp Med (1993) 177:1071-1077) The PEM were washed in CA^2+- and MG^2+-free HBSS and resuspended in serum-free medium: 1×10^5 cells were plated into each 38-mm^2 well of 96-well culture plates (Falcon Plastics, Oxnard, Calif.). After a 90-minute incubation, the nonadherent cells were removed by washing them with medium. More than 98% of the adherent cell populations were macrophages according to morphology and phagocytic criteria. (Saiki I, et al. J Immunol (1985) 135:684 688)
PEM in 96-well plates at a density of 10^5 cells/well/200 μl of medium were treated as indicated in Results. The culture supernatants were harvested and used immediately for the cytokine assays or stored at −70° C. For cell lysates, supernatants were removed and macrophages were frozen-thawed in fresh medium. Specific cytokines in the supernatants or cell lysates (diluted at 1:5 or 1:10) were measured by ELISA kits according to manufacturer's instructions.
The nitrite concentration in culture supernatants was determined by a microplate assay as described previously. Briefly, 50-μl samples harvested from PEM-conditioned medium were treated with an equal volume of Griess reagent (1% sulfanilamide, 0.1% naphthylene diamine dihydrochloride, and 2.5% H3PO4) at room temperature for 10 minutes. The absorbance at 540 nm was monitored with a microplate reader. The nitrite concentration was determined using sodium nitrite as a standard.

K-1735 M2 cells = assay: Macrophage-mediated cytotoxicity against K-1735 M2 cells; assay type: cell-based, mouse; conditions: PEM activated by JBT3002

Row | effect of kinase inhibitor on production of NO [2] | effect of kinase inhibitor on production of TNF-α ([2]; H-89) | SMILES | tumor cytotoxicity (tumor cells) [%] | NO [1] [µM] | minimal inhibition dose (K-1735 M2 cells) [µM]
1 |  |  | CNC(=N)NCCC[C@H](N)C(=O)O [NMA, N^G-monomethyl-L-arginine] | 1.3 | 1.6 | 
2 | significantly inhibited | significantly inhibited | O=c1c(-c2ccc(O)cc2)coc2cc(O)cc(O)c12 [genistein, Genistein] |  |  | 30 to 40
